Where two headings read alike, the source gives them in different places.
Assays:
NgCAα = target: T1, NgCAα (Neisseria gonorrhoeae, UniProt Q50940); assay: stopped-flow CO2 hydrase assay; assay type: biochemical
T1 construct: gene cah; recombinant, obtained in-house as described earlier
T1 sequence (Q50940 27-252): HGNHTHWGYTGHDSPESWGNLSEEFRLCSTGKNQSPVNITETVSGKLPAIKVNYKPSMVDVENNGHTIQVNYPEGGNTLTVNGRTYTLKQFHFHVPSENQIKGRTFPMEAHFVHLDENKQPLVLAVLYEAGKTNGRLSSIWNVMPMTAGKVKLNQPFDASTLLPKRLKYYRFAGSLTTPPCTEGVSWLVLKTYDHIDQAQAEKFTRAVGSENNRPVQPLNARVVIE

VchCAα = target: T2, VchCAα (Vibrio cholerae, UniProt Q9KMP6); assay: stopped-flow CO2 hydrase assay; assay type: biochemical; settings: read-out: KI (μM)^a / VchCAα; CO2 substrate 1.7-17 mM, 10 mM HEPES pH 7.4, 10 mM NaClO4, 15 min preincubation
T2 construct: gene VC_A0274
T2 sequence (Q9KMP6 21-239 limits assumed): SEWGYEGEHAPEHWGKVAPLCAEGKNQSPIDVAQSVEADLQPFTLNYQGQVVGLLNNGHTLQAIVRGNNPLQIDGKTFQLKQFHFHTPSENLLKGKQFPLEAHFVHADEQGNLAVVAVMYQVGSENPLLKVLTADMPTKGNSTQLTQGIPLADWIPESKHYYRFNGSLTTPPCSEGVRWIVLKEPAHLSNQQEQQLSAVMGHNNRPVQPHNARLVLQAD

| SMILES | Ki (NgCAα) | Ki (VchCAα) | Ki (NgCAα; CO2 substrate 1.7-17 mM, 10 mM HEPES pH 7.4, 10 mM NaClO4, 15 min preincubation) |
| --- | --- | --- | --- |
| Oc1ccccc1 [compound 1, phenol] | 0.9 µM | 0.8 µM | – |
| Oc1ccccc1O [compound 2, 2] | 5.3 µM | 20.3 µM | – |
| Oc1cccc(O)c1 [compound 3, 3] | 2.2 µM | 8.6 µM | – |
| Oc1ccc(O)cc1 [compound 4, 4] | 4.7 µM | 8.4 µM | – |
| Oc1ccc(O)c(O)c1 [compound 5, 5] | 3.9 µM | 9.4 µM | – |
| Nc1cccc(O)c1 [compound 6, 3-aminophenol] | 1.7 µM | 3.9 µM | – |
| Nc1ccc(O)cc1 [compound 7, 7] | 6 µM | 10.6 µM | – |
| CC(=O)Nc1ccc(O)cc1 [compound 8, paracetamol] | 1.5 µM | 7 µM | – |
| N#Cc1ccc(O)cc1 [compound 9, 4-cyanophenol] | – | 17.2 µM | 24.2 µM |
| O=C(O)c1ccccc1O [compound 10, salicylic acid] | 43.8 µM | 39.1 µM | – |
| O=C(O)c1ccc(O)cc1 [compound 11, 4-hydroxy-benzoic acid] | 8.7 µM | 3.5 µM | – |
| OCc1ccc(O)cc1 [compound 12, 4-hydroxy-benzylalcohol] | 0.6 µM | 1.2 µM | – |
| Nc1cc(O)ccc1Cl [compound 13, 3-amino-4-chlorophenol] | 0.8 µM | 0.7 µM | – |
| Nc1ccc(O)c(Cl)c1 [compound 14, 14] | 71.5 µM | 81.6 µM | – |
| Oc1ccc(F)cc1F [compound 15, 15] | 35.9 µM | 36.6 µM | – |
| Oc1cc(F)cc(F)c1 [compound 16, 3,5-difluorophenol] | 3.7 µM | 4.9 µM | – |
| O=C(O)c1ccc(O)c(O)c1 [compound 18, 3,4-dihydroxybenzoic acid] | 9.3 µM | 13.8 µM | – |
| O=C(O)c1c(O)cccc1O [compound 19, 19] | 33.1 µM | 49.6 µM | – |
| O=C(O)c1cc(O)ccc1O [compound 20, 20] | 16.3 µM | 7.3 µM | – |
| O=C(O)/C=C/c1ccc(O)cc1 [compound 21, 21] | 10 µM | 40.5 µM | – |
| O=C(O)/C=C/c1ccc(O)c(O)c1 [compound 22, caffeic acid] | 76 µM | 78.1 µM | – |

From PMC8843131, “Inhibition studies of bacterial α-carbonic anhydrases with phenols” (Journal of Enzyme Inhibition and Medicinal Chemistry, 2022)
